Data published in patent EP4206196A1, “PYRIMIDINE SUBSTITUTED DERIVATIVES AS TYK2 INHIBITORS” (Almirall S.A., priority 2021, dated 2023).

Tests used:
[1] = target: T1, TYK2 (JH2domain-pseudokinase) (Homo sapiens, UniProt P29597); experiment: TYK2 JH2 domain binding assay (KINOMEscan)
T1 construct: TYK2 (JH2domain-pseudokinase)-tagged T7 phage strains were prepared in an E. coli host derived from the BL21 strain; made in house; host or cells: E. coli BL21-derived host (T7 phage) or HEK-293 cells
Procedure: TYK2 (JH2domain-pseudokinase) KINOMEscan assay. For the assay, TYK2 (JH2domain-pseudokinase)-tagged T7 phage strains were prepared in an E. coli host derived from the BL21 strain.E. coli were grown to log-phase and infected with T7 phage and incubated with shaking at 32°C until lysis. The lysates were centrifuged and filtered to remove cell debris. The remaining TYK2 (JH2domain-pseudokinase) were produced in HEK-293 cells and subsequently tagged with DNA for qPCR detection. Streptavidin-coated magnetic beads were treated with biotinylated small molecule ligands for 30 minutes at room temperature to generate affinity resins for kinase assays. The liganded beads were blocked with excess biotin and washed with blocking buffer (SeaBlock (Pierce), 1% BSA, 0.05% Tween 20, 1 mM DTT) to remove unbound ligand and to reduce non-specific binding. Binding reactions were assembled by combining TYK2 (JH2domain-pseudokinase), liganded affinity beads, and test compounds in 1x binding buffer (20% SeaBlock, 0.17x PBS, 0.05% Tween 20, 6 mM DTT). Test compounds were prepared as 111X stocks in 100% DMSO. Kds were determined using an 11-point 3-fold compound dilution series with three DMSO control points. All compounds for Kd measurements are distributed by acoustic transfer (non-contact dispensing) in 100% DMSO. The compounds were then diluted directly into the assays such that the final concentration of DMSO was 0.9%. All reactions performed in polypropylene 384-well plate. Each was a final volume of 0.02 ml. The assay plates were incubated at room temperature with shaking for 1 hour and the affinity beads were washed with wash buffer (1x PBS, 0.05% Tween 20). The beads were then re-suspended in elution buffer (1x PBS, 0.05% Tween 20, 0.5 µM non-biotinylated affinity ligand) and incubated at room temperature with shaking for 30 minutes. The kinase concentration in the eluates was measured by qPCR. […]
An 11-point 3-fold serial dilution of each test compound was prepared in 100% DMSO at 100x final test concentration and subsequently diluted to 1x in the assay (final DMSO concentration = 1%). Most Kds were determined using a compound top concentration = 30,000 nM. If the initial Kd determined was < 0.5 nM (the lowest concentration tested), the measurement was repeated with a serial dilution starting at a lower top concentration.
Curves were fitted using a non-linear least square fit with the Levenberg-Marquardt algorithm. […] TABLE 1: Kd Affinities for Tyk2 JH2 Domain Binding Assay.

[2] = tested on: STAT1/3 through TYK2/JAK1; experiment: IFNa induced STAT phosphorylation in HEK293 cells (SIE-bla reporter gene); type: cell-based; conditions: Homo sapiens, HEK293; HEK293T-sie-bla cells, IFNa at EC80, 4 hours; read-out: Inhibition of IFNa induced STAT phosphorylation HEK293 cells IC50
Procedure: Stimulation of HEK293T-sie-bla cells with interferon alpha (INFa) activates the signaling pathway of STAT1/3 through TYK2/JAK1. In this assay, measurement of the activity of the reporter gene […]-lactamase expression was used as the readout.
CellSensorTM SIE-bla HEK293T cell line were purchased from Thermo Fisher Scientific (ref. #K1649B) and cultured as specified by the provider. A number of 30.000 cells per well (40 µl) were plated in a 384-well plate (Corning ref.# 3712) and cultured overnight at 37°C with 5% CO2 in a complete Optimem media (ThermoFisher ref. #11058-021) containing 0.5% (v/v) heat inactivated dialyzed FBS (Life Technologies ref. #26400044), 10 µM non-essential aminoacids NEAA (Sigma ref. #M7145), 100 µM Sodium Pyruvate (Gibco ref. #11360-039) and 100 U/mL Penicillin (Sigma ref. #P0781). Compounds were initially dissolved in 100% DMSO. Compound curves were then prepared using a 1/5 serial dilution (10 dilutions). The dilutions were directly diluted in complete Optimem media at 40-fold their final concentration in 20% DMSO. IFNa initial solution (R&D systems ref. #11100-1) was prepared at 10-fold its EC80 in complete Optimem media. Compounds and IFNa were added simultaneously to the wells with cells and incubated during 4 hours at 37°C (the final DMSO was 0.1%). The […]-lactamase substrate (LifeTechnologies ref.#K1138) was prepared at 6-fold its final concentration as specified by the provider. Then 10 µL of the mixture was added to the wells to stop the stimulation. Plate was left in the dark over-night. Then a FRET reading was performed on an appropriate plate reader.
All experiments were analysed using an ExcelFit template and the four-parameter log equation. […] TABLE 2: IC50 Inhibitions of IFNa induced STAT phosphorylation in HEK293 cells

T1 sequence (P29597 589-875 limits assumed): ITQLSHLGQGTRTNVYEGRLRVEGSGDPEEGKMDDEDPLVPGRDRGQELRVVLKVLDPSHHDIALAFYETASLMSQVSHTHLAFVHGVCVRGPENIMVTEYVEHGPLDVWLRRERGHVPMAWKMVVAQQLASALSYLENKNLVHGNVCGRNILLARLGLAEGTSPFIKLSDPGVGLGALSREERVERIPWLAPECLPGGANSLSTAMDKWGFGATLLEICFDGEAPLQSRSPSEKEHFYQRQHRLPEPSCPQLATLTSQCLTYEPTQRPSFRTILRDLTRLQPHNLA

Kd [1] [nM]	IC50 [2] [nM]	SMILES
< 0.2	< 10	Cc1cc(Nc2cc(Nc3ncc(C4CCCCO4)cc3N(C)S(C)(=O)=O)ncn2)nc(C)n1 (centres unmarked) [Example 167, N-[2-[[6-[(2,6-dimethylpyrimidin-4-yl)amino]pyrimidin-4-yl]amino]-5-tetrahydropyran-2-yl-3-pyridyl]-N-methyl-methanesulfonamide]
0.2 to 1	100 to 1000	COc1c(Nc2cc(Nc3cc(C)nc(C)n3)ncn2)cccc1-c1ncc(F)cn1 [Example 31, N4-(2,6-dimethylpyrimidin-4-yl)-N6-[3-(5-fluoropyrimidin-2-yl)-2-methoxy-phenyl]pyrimidine-4,6-diamine]
> 10	> 1000	COc1c(F)cccc1Nc1cc(Nc2cc(C)nc(C)n2)ncn1 [Example 7, N6-(2,6-dimethylpyrimidin-4-yl)-N4-(3-fluoro-2-methoxy-phenyl) pyrimidine-4,6-diamine]
1 to 10	> 1000	COc1c(C#N)cccc1Nc1cc(Nc2cc(C)nc(C)n2)ncn1 [Example 16, 3-[[6-[(2,6-dimethylpyrimidin-4-yl)amino]pyrimidin-4-yl]amino]-2-methoxy-benzonitrile]
< 0.2	10 to 100	Cc1cc(Nc2cc(Nc3ncc(-c4nc(C)n(C)n4)cc3N(C)S(C)(=O)=O)ncn2)ncn1 [Example 154, N-[5-(1,5-dimethyl-1,2,4-triazol-3-yl)-2-[[6-[(6-methylpyrimidin-4-yl)amino]pyrimidin-4-yl]amino]-3-pyridyl]-N-methyl-methanesulfonamide]
1 to 10	100 to 1000	COc1ccccc1Nc1cc(Nc2cc(C)nc(C)n2)ncn1 [Example 23, N6-(2,6-dimethylpyrimidin-4-yl)-N4-(2-methoxyphenyl)pyrimidine-4,6-diamine]
0.2 to 1	10 to 100	CN(c1ccccc1Nc1cc(Nc2ccc(C#N)cn2)ncn1)S(C)(=O)=O [Example 102, N-[2-[[6-[(5-cyano-2-pyridyl)amino]pyrimidin-4-yl]amino]phenyl]-N-methyl-methanesulfonamide]
1 to 10	> 1000	COc1c(C)cccc1Nc1cc(NC(=O)C2CC2)ncn1 [Example 3, N-[6-(2-methoxy-3-methyl-anilino)pyrimidin-4-yl]cyclopropanecarboxamide]
0.2 to 1	10 to 100	COCCn1cnc(-c2cccc(Nc3cc(Nc4cc(C)nc(C)n4)ncn3)c2OC)n1 [Example 44, N6-(2,6-dimethylpyrimidin-4-yl)-N4-[2-methoxy-3-[1-(2-methoxyethyl)-1,2,4-triazol-3-yl]phenyl]pyrimidine-4,6-diamine]
0.2 to 1	100 to 1000	Cc1cc(Nc2cc(Nc3ncc(-c4ncnn4C)cc3N(C)S(C)(=O)=O)ncn2)nc(C)n1 [Example 130, N-[2-[[6-[(2,6-dimethylpyrimidin-4-yl)amino]pyrimidin-4-yl]amino]-5-(2-methyl-1,2,4-triazol-3-yl)-3-pyridyl]-N-methyl-methanesulfonamide]
0.2 to 1	10 to 100	Cc1cc(Nc2cc(Nc3ncc(-c4ccnn4C)cc3N(C)S(C)(=O)=O)ncn2)nc(C)n1 [Example 127, N-[2-[[6-[(2,6-dimethylpyrimidin-4-yl)amino]pyrimidin-4-yl]amino]-5-(2-methylpyrazol-3-yl)-3-pyridyl]-N-methyl-methanesulfonamide]
< 0.2	< 10	Cc1cc(Nc2cc(Nc3ccc(C4=CCOCC4)cc3N(C)S(C)(=O)=O)ncn2)nc(C)n1 [Example 95, N-[5-(3,6-dihydro-2H-pyran-4-yl)-2-[[6-[(2,6-dimethylpyrimidin-4-yl)amino]pyrimidin-4-yl]amino]phenyl]-N-methyl-methanesulfonamide]
1 to 10	> 1000	COc1cc(-c2cn(C)cn2)ccc1Nc1cc(Nc2cc(C)nc(C)n2)ncn1 [Example 90, N4-(2,6-dimethylpyrimidin-4-yl)-N6-[2-methoxy-4-(1-methylimidazol-4-yl)phenyl]pyrimidine-4,6-diamine]
0.2 to 1	10 to 100	COc1c(Nc2cc(Nc3cc(C)nc(C)n3)ncn2)cccc1-c1cnn(C)c1 [Example 15, N4-(2,6-dimethylpyrimidin-4-yl)-N6-[2-methoxy-3-(1-methylpyrazol-4-yl)phenyl]pyrimidine-4,6-diamine]
0.2 to 1	100 to 1000	COCc1nc(-c2cccc(Nc3cc(Nc4cc(C)nc(C)n4)ncn3)c2OC)no1 [Example 30, N4-(2,6-dimethylpyrimidin-4-yl)-N6-[2-methoxy-3-[5-(methoxymethyl)-1,2,4-oxadiazol-3-yl]phenyl]pyrimidine-4,6-diamine]
> 10	> 1000	COc1ccccc1Nc1cc(NC(=O)C2CC2)ncn1 [Example 2, N-[6-(2-methoxyanilino)pyrimidin-4-yl]cyclopropanecarboxamide]
> 10	> 1000	COc1c(C)cccc1Nc1cc(Nc2cnn(C3CCOCC3)c2)ncn1 [Example 9, N4-(2-methoxy-3-methyl-phenyl)-N6-(1-tetrahydropyran-4-ylpyrazol-4-yl)pyrimidine-4,6-diamine]
< 0.2	< 10	[2H]C([2H])([2H])N(c1ccccc1Nc1cc(Nc2cc(C)nc(C)n2)ncn1)S(C)(=O)=O [Example 34, N-[2-[[6-[(2,6-dimethylpyrimidin-4-yl)amino]pyrimidin-4-yl]amino]phenyl]-N-(trideuteriomethyl)methanesulfonamide]
< 0.2	10 to 100	Cc1cc(Nc2cc(Nc3ncc(-c4ccn(C)n4)cc3N(C)S(C)(=O)=O)ncn2)nc(C)n1 [Example 131, N-[2-[[6-[(2,6-dimethylpyrimidin-4-yl)amino]pyrimidin-4-yl]amino]-5-(1-methylpyrazol-3-yl)-3-pyridyl]-N-methyl-methanesulfonamide]
1 to 10	> 1000	COc1cc(-c2noc(C)n2)ccc1Nc1cc(Nc2cc(C)nc(C)n2)ncn1 [Example 93, N6-(2,6-dimethylpyrimidin-4-yl)-N4-[2-methoxy-4-(5-methyl-1,2,4-oxadiazol-3-yl)phenyl]pyrimidine-4,6-diamine]
< 0.2	< 10	COc1c(-c2noc(C)n2)ccnc1Nc1cc(Nc2cc(C)nc(C)n2)ncn1 [Example 159, 4-N-(2,6-dimethylpyrimidin-4-yl)-6-N-[3-methoxy-4-(5-methyl-1,2,4-oxadiazol-3-yl)pyridin-2-yl]pyrimidine-4,6-diamine]
< 0.2	< 10	Cc1cc(Nc2cc(Nc3ncc(-c4cnn(C)c4C)c(C)c3S(C)(=O)=O)ncn2)nc(C)n1 [Example 153, N6-[5-(1,5-dimethylpyrazol-4-yl)-4-methyl-3-methylsulfonyl-2-pyridyl]-N4-(2,6-dimethylpyrimidin-4-yl)pyrimidine-4,6-diamine]
